Read-outs that look alike come from different tables or passages of the source.
Key:
Sprague Dawley rats = experiment: Porsolt forced swim test; assay type: in vivo, rat; conditions: compared to vehicle group
Method: A non-clinical in vivo pharmacology study (Porsoit assay) was performed to measure antidepressant-like effects. A negative control (0.5% sodium carboxymethyl cellulose in 0.9% sterile saline vehicle) and a positive control (Compound D) were used to compare against Compound A and Compound B. The study allowed for the construction of a dose-response curve of the effects of each compound on the Porsolt forced swim test as assessed by the rats' response (reduced floating time) during a 5-minute swimming test.
Male 2-3 month old Sprague Dawley rats were used (Harlan, Indianapolis, Ind.). Rats were housed in Lucite cages with aspen wood chip bedding, maintained on a 12:12 light:dark cycle (lights on at 5 AM), and given ad libitum access to Purina lab chow (USA) and tap water throughout the study.
The Porsolt forced swim test adapted for use in rats was performed as described by Burgdorf et al., (The long-lasting antidepressant effects of rapastinel (GLYX-13) are associated with a metaplasticity process in the medial prefrontal cortex and hippocampus. Neuroscience 308:202-211, 2015). […] Animals were videotaped, and floating time as defined as the minimal amount of effort required to keep the animals head above water was scored offline by a blinded experimenter with high inter-rater reliability (Pearson's r>0.9). […]

[1] = Bioavailability and CSF/brain/plasma distribution after PO dosing; assay type: in vivo, Sprague Dawley rats; conditions: for Kp / bioavailability: Sprague Dawley, rat, PO administration (Compound A 10 mg/kg); for bioavailability: plasma, read-out: Bioavailablity (% F); for oral bioavailability, in words / proportion able to get to the CSF and brain, in words: comparative statement, comparator not named
Method: The bioavailablity of Compound A was investigated following PO administration. CSF, brain and plasma samples were analyzed following dosing with compound A (10 mg/kg). The following table indicates the bioavailablity and CSF/plasma and brain/plasma ratios.
Sprague Dawley rats were dosed intravenously with 2 mg/kg of Compound A. A second group of Sprague Dawley rats was dosed per os with 10 mg/kg of compound A. Plasma samples were drawn over a 24 h period and analyzed for Compound A.
In another experiment, Sprague Dawley rats were dosed per os with 10 mg/kg of Compound A. Plasma, brain, and CSF samples were analyzed at various time points over a 24 hour period. […]

NMDAR2D = NMDAR2D (Homo sapiens, UniProt O15399+Q05586); experiment: Potentiation of [3H]MK-801 binding, NMDAR2D; parameters: species or system rat; conditions: NMDAR2D binding profile, wild-type
Chain of NMDAR2D (O15399 28-1336, species assumed, other chains not shown): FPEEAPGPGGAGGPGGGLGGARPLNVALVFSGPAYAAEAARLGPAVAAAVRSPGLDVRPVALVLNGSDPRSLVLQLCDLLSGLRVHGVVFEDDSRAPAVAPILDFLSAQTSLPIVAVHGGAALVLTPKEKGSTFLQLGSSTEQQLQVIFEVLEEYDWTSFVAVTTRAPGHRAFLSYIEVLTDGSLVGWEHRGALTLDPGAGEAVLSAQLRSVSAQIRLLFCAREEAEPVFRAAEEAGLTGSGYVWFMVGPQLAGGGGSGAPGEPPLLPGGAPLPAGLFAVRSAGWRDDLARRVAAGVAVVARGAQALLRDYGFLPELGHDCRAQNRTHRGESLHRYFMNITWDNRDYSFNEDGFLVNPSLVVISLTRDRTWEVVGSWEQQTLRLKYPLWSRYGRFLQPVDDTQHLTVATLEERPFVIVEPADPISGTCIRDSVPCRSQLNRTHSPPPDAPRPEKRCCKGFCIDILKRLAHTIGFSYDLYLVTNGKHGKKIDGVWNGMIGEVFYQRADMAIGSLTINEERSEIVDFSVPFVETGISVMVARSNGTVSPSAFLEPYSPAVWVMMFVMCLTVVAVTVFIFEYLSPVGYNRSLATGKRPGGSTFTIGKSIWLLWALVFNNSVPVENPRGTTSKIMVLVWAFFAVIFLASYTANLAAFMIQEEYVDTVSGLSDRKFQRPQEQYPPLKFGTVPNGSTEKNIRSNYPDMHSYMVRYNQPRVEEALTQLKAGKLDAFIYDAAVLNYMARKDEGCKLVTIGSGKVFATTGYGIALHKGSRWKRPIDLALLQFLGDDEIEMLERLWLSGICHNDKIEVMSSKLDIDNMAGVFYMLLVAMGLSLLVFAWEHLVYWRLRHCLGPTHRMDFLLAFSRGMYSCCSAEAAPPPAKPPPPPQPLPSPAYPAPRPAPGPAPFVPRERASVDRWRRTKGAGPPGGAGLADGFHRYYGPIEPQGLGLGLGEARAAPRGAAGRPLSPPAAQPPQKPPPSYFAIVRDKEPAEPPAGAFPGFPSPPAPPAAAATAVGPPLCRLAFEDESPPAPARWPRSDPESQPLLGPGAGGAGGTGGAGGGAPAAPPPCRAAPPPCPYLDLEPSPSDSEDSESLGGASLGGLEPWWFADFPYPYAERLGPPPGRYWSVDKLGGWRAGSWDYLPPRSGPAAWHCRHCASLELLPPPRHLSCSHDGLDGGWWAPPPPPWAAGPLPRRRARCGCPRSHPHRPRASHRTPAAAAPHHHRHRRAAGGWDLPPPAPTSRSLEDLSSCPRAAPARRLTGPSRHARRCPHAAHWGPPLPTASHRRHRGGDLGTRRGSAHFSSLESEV
Method: Assays were conducted as described by Moskal et al., “GLYX-13: a monoclonal antibody-derived peptide that acts as an N-rnethyl-D-aspartate receptor modulator,” Neuropharmacology, 49, 1077-87, 2005. The potentiation of [^3H]MK-801 binding (5 nrM; 22.5 Ci/mmol) to well washed rat cortical membranes (200 μg) was measured under non-equilibrium conditions (15 min @ 25° C.) in the presence of increasing concentrations of Compound A.
Assays were conducted as described above in Example 5, by Moskal et al. (2005).

[2] = CSF/plasma, read-out: CSF/plasma ratio
[3] = brain/plasma, read-out: Brain/plasma ratio

Row | Kp [1, 2] | Kp [1, 3] | bioavailability [1] | oral bioavailability, in words [1] | EC50 (NMDAR2D) | SMILES | floating time in the Porsolt test (antidepressant-like effect) (Sprague Dawley rats; 10-1000 μg/kg PO, 1 h post-dosing) | proportion able to get to the CSF and brain, in words [1] | floating time in the Porsolt test (antidepressant-like effect) (Sprague Dawley rats; 0.1-10 μi/kg PO, 1 hour post-dosing)
1 | 0.65 | 0.19 | 42% | lower oral bioavailability |  | CC(C)CN1CCC[C@]12CN([C@H](C(N)=O)[C@@H](C)O)C2=O [Compound A, (2S,3R)-3-hydroxy-2-((R)-5-isobutyl-1-oxo-2,5-diazaspiro[3.4]octan-2-yl)butanamide] | produces an antidepressant-like effect | a higher proportion is able to get to the CSF and brain | 
2 | 0.7 | 0.18 | 38% | lower oral bioavailability | 3.98 nM | CC(C)CN1CCC[C@@]12CN([C@H](C(N)=O)[C@@H](C)O)C2=O [Compound B, (2S,3R)-3-hydroxy-2-((S)-5-isobutyl-1-oxo-2,5-diazaspiro[3.4]octan-2-yl)butanamide] |  | a higher proportion is able to get to the CSF and brain | produces an antidepressant-like effect

— patent US10196401B2, “Spiro-lactam NMDA receptor modulators and uses thereof” (Aptinyx Inc., priority 2016, dated 2019)
